Laboratory results taken from patent US20170320870A1 (Medical Research Council Technology, priority 2009, published 2017).

Biological target: T1, LRRK2 wild type (recombinant human, catalytic domain amino acids 970-2527, GST-tagged) (Homo sapiens, UniProt Q5S007)
T1 construct: The wild type used was recombinant human, catalytic domain (amino acids 970-2527) GST-tagged, expressed in insect cells; GST; purchased Invitrogen Corporation PV4873; host or cells: insect cells
Experiment: LRRK2 wild type protein kinase assay ([γ-33P] ATP, peptide substrate […]), IC50
Type: biochemical
Details: LRRK2 (variant not given); read-out: Potency score, LRRK2 IC50
Description: All LRRK2 protein kinases were of human origin and were sourced from Invitrogen Corporation (Carlsbad, Calif. 92008 USA) unless otherwise indicated. The active mutant used was recombinant human, catalytic domain (amino acids 970-2527) containing a G2019S mutation, GST-tagged, expressed in insect cells (Invitrogen Cat#PV4881). The wild type used was recombinant human, catalytic domain (amino acids 970-2527) GST-tagged, expressed in insect cells (Invitrogen Cat#PV4873). The kinase dead mutant used was recombinant human, catalytic domain (amino acids 970-2527) containing a D1994A mutation, GST-tagged, expressed in insect cells (Invitrogen Cat#PM4041AE). No special measures were taken to activate any of the kinases.
All assays were carried out at room temperature (˜21° C.) and were linear with respect to time and enzyme concentration under the conditions used. Assays were performed for 180 min in a 96 well format. LRRK2 was present at a concentration of approximately 5 nM. The enzyme was diluted and assayed in 50 mM Tris-HCl pH7.5, 0.1 mM EGTA, 1 mM DTT and 10 mM MgCl2. The concentration of magnesium chloride in the assay was 10 mM. The [γ-33P] […] The peptide substrate in the assay was […] at 100 μM.
The assays were initiated with Mg/ATP and stopped by the addition of 25 μl/well 50% orthophosphoric acid. Reactions were harvested onto Whatman P81 Unifilter Plates (Fisher Scientific. Loughborough, LE115RG, UK. Cat# FDU-105-020U) using a Tomtec harvester. (Tomtec Hamden, Conn. 06514. USA) Plates were counted using a Perkin Elmer Top Count NX7. (Perkin Elmer, Shelton Conn. 06484-4794 USA)
IC50 values of inhibitors were determined after carrying out assays at 10 different concentrations of each compound in duplicate.

T1 sequence (Q5S007 970-2527): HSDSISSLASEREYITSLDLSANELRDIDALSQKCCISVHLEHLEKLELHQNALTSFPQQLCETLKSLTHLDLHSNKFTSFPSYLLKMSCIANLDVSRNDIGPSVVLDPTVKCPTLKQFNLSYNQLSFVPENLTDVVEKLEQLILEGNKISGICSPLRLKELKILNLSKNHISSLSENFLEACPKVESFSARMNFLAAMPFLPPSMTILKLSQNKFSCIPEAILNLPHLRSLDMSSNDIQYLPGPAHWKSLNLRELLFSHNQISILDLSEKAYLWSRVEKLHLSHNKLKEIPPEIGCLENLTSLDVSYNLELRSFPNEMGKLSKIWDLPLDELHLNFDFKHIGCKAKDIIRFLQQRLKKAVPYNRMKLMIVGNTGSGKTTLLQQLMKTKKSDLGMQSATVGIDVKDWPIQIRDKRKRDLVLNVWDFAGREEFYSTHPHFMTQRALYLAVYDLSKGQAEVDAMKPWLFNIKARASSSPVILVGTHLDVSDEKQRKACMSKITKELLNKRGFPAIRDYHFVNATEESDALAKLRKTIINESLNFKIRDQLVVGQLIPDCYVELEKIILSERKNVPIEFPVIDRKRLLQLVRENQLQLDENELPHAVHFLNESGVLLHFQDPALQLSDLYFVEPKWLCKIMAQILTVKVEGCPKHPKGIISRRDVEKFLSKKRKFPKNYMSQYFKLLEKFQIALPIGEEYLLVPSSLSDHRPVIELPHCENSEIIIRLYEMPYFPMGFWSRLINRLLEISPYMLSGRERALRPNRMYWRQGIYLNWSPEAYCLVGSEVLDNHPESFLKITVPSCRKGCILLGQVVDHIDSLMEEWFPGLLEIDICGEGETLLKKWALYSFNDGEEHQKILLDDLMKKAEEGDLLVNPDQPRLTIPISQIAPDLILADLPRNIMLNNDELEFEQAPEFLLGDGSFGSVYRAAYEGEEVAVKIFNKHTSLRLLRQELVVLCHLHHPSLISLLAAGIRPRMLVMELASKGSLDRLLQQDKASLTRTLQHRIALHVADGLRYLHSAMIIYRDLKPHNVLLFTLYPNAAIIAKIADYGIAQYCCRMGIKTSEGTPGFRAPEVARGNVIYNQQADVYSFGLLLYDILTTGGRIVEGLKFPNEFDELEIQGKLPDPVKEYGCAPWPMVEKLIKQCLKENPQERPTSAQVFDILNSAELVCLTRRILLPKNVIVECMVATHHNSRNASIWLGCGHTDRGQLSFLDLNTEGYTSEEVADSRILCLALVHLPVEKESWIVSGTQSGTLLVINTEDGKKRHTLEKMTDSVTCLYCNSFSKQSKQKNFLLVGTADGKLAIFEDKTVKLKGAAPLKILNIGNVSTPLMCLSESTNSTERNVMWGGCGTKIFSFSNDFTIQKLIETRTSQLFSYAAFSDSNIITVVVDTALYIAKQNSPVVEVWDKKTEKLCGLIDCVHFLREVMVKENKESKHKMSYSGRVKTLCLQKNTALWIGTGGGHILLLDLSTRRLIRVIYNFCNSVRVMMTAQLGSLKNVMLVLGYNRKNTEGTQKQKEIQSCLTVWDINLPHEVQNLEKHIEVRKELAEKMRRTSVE

Row | Compound | IC50 [nM]
1 | 1-(3-Benzyl-piperidin-1-yl)- 3-(4-cyclohexylamino-1H- pyrazolo[4,3-c]pyridin-3-yl)- propan-1-one [Example 200] | 100 to 1000
2 | Cc1n[nH]c2ccnc(NCc3ccc(Cl)cc3)c12 [Example 1, (4-Chloro-benzyl)-(3-methyl-1H-pyrazolo[4,3-c]pyridin-4-yl)-amine] | 1000 to 10000
3 | Cc1n[nH]c2ccnc(NCCc3ccccn3)c12 [Example 2, (3-Methyl-1H-pyrazolo[4,3-c]pyridin-4-yl)-(2-pyridin-2-yl-ethyl)-amine] | 1000 to 10000
4 | Cc1n[nH]c2ccnc(NC3CCCCC3)c12 [Example 3, Cyclohexyl-(3-methyl-1H-pyrazolo[4,3-c]pyridin-4-yl)-amine] | 100 to 1000
5 | Cc1n[nH]c2ccnc(NC3CCOCC3)c12 [Example 4, (3-Methyl-1H-pyrazolo[4,3-c]pyridin-4-yl)-(tetrahydro-pyran-4-yl)-amine] | 100 to 1000
6 | Cc1n[nH]c2ccnc(N3CCN(C)CC3)c12 [Example 5, 3-Methyl-4-(4-methyl-piperazin-1-yl)-1H-pyrazolo[4,3-c]pyridine] | 1000 to 10000
7 | COCCNc1nccc2[nH]nc(C)c12 [Example 6, (2-Methoxy-ethyl)-(3-methyl-1H-pyrazolo[4,3-c]pyridin-4-yl)-amine] | 1000 to 10000
8 | Cc1n[nH]c2ccnc(N3CCN(c4cccc(Cl)c4)CC3)c12 [Example 7, 4-[4-(3-Chloro-phenyl)-piperazin-1-yl]-3-methyl-1H-pyrazolo[4,3-c]pyridine] | 1000 to 10000
9 | Cc1n[nH]c2ccnc(N3CCN(Cc4cc(F)ccc4F)CC3)c12 [Example 8, 4-[4-(2,5-Difluoro-benzyl)-piperazin-1-yl]-3-methyl-1H-pyrazolo[4,3-c]pyridine] | 1000 to 10000
10 | Cc1n[nH]c2ccnc(N3CCN(c4ccccn4)CC3)c12 [Example 9, 3-Methyl-4-(4-pyridin-2-yl-piperazin-1-yl)-1H-pyrazolo[4,3-c]pyridine] | 1000 to 10000
11 | Cc1n[nH]c2ccnc(N3CCOCC3)c12 [Example 10, 3-Methyl-4-morpholin-4-yl-1H-pyrazolo[4,3-c]pyridine] | 1000 to 10000
12 | Cc1n[nH]c2ccnc(NC3CC3)c12 [Example 11, Cyclopropyl-(3-methyl-1H-pyrazolo[4,3-c]pyridin-4-yl)-amine] | 1000 to 10000
13 | Cc1n[nH]c2ccnc(N3CCc4ccccc4C3)c12 [Example 12, 2-(3-Methyl-1H-pyrazolo[4,3-c]pyridin-4-yl)-1,2,3,4-tetrahydro-isoquinoline] | 1000 to 10000
14 | Cc1n[nH]c2ccnc(NC3CCN(C)CC3)c12 [Example 13, (1-Methyl-piperidin-4-yl)-(3-methyl-1H-pyrazolo[4,3-c]pyridin-4-yl)-amine] | 100 to 1000
15 | CCN(CC)CCNc1nccc2[nH]nc(C)c12 [Example 14, N,N-diethyl-N′-(3-methyl-1H-pyrazolo[4,3-c]pyridin-4-yl)-ethane-1,2-diamine] | 1000 to 10000
16 | Cc1n[nH]c2ccnc(NCCCn3ccnc3)c12 [Example 15, (3-Imidazol-1-yl-propyl)-(3-methyl-1H-pyrazolo[4,3-c]pyridin-4-yl)-amine] | 100 to 1000
17 | CCCNc1nccc2[nH]nc(C)c12 [Example 16, (3-Methyl-1H-pyrazolo[4,3-c]pyridin-4-yl)-propyl-amine] | 100 to 1000
18 | Cc1n[nH]c2ccnc(NCC3CCOCC3)c12 [Example 17] | 1000 to 10000
19 | Cc1n[nH]c2ccnc(NCC3CC3)c12 [Example 18, Cyclopropylmethyl-(3-methyl-1H-pyrazolo[4,3-c]pyridin-4-yl)-amine] | 1000 to 10000
20 | Cc1n[nH]c2ccnc(N[C@H](C)c3ccccc3)c12 [Example 19, (3-Methyl-1H-pyrazolo[4,3-c]pyridin-4-yl)-((R)-1-phenyl-ethyl)-amine] | 1000 to 10000
21 | Cc1n[nH]c2ccnc(NC3CCC(F)(F)CC3)c12 [Example 20, (4,4-Difluoro-cyclohexyl)-(3-methyl-1H-pyrazolo[4,3-c]pyridin-4-yl)-amine] | 100 to 1000
22 | Cc1n[nH]c2ccnc(NC3CCCC3)c12 [Example 21, Cyclopentyl-(3-methyl-1H-pyrazolo[4,3-c]pyridin-4-yl)-amine] | 100 to 1000
23 | Cc1n[nH]c2ccnc(NC3CCC3)c12 [Example 22, Cyclobutyl-(3-methyl-1H-pyrazolo[4,3-c]pyridin-4-yl)-amine] | 100 to 1000
24 | CCC(C)Nc1nccc2[nH]nc(C)c12 (stereo not shown) [Example 23, sec-Butyl-(3-methyl-1H-pyrazolo[4,3-c]pyridin-4-yl)-amine] | 100 to 1000
25 | Cc1n[nH]c2ccnc(NCC(C)C)c12 [Example 24, Isobutyl-(3-methyl-1H-pyrazolo[4,3-c]pyridin-4-yl)-amine] | 100 to 1000
26 | Cc1n[nH]c2ccnc(NCCC3CCCN3C)c12 (stereo not shown) [Example 25, (3-Methyl-1H-pyrazolo[4,3-c]pyridin-4-yl)-[2-(1-methyl-pyrrolidin-2-yl)-ethyl]-amine] | 1000 to 10000

Now from value to compound:

Row | IC50 [nM] | Compound
27 | 100 to 1000 | Cc1n[nH]c2ccnc(O[C@H]3C[C@@H]4CC[C@H]3C4)c12 (racemic) [Example 291]
28 | 100 to 1000 | Cc1n[nH]c2ccnc(O[C@@H]3CCC[C@@H]3C)c12 (racemic) [Example 293, Cis-3-Methyl-4-(2-methyl-cyclopentyl-oxy)-1H-pyrazolo [4,3-c]pyridine]
29 | < 100 | Cc1n[nH]c2ccnc(O[C@@H]3C[C@@H]4CC[C@H]3C4)c12 (racemic) [Example 296]
30 | < 100 | Cc1n[nH]c2ccnc(O[C@@H]3CCC[C@H]3C)c12 (racemic) [Example 298, Trans-3-Methyl-4-(2-methyl-cyclopentyloxy)-1H-pyrazolo[4,3-c]pyridine]
31 | 100 to 1000 | Cc1n[nH]c2ccnc(N[C@H]3CC[C@H](O)CC3)c12 [Example 26, Trans-4-(3-Methyl-1H-pyrazolo[4,3-c]pyridin-4-ylamino)-cyclohexanol]
32 | 100 to 1000 | Cc1n[nH]c2ccnc(NC(C)C(C)C)c12 (stereo not shown) [Example 27, (1,2-Dimethyl-propyl)-(3-methyl-1H-pyrazolo[4,3-c]pyridin-4-yl)-amine]
33 | 1000 to 10000 | Cc1n[nH]c2ccnc(N[C@H](CO)C(C)C)c12 [Example 28, (S)-3-Methyl-2-(3-methyl-1H-pyrazolo[4,3-c]pyridin-4-ylamino)-butan-1-ol]
34 | 1000 to 10000 | Cc1n[nH]c2ccnc(N[C@@H](C)c3ccccc3)c12 [Example 29, (3-Methyl-1H-pyrazolo[4,3-c]pyridin-4-yl)-((S)-1-phenyl-ethyl)-amine]
35 | 1000 to 10000 | Cc1n[nH]c2ccnc(N[C@@H](CO)C(C)C)c12 [Example 30, (R)-3-Methyl-2-(3-methyl-1H-pyrazolo[4,3-c]pyridin-4-ylamino)-butan-1-ol]
36 | 1000 to 10000 | Cc1n[nH]c2ccnc(NC3CCCN(C)C3)c12 (stereo not shown) [Example 31, (1-Methyl-piperidin-3-yl)-(3-methyl-1H-pyrazolo[4,3-c]pyridin-4-yl)-amine]
37 | 1000 to 10000 | Cc1n[nH]c2ccnc(NCC(C)(C)C)c12 [Example 32, (2,2-Dimethyl-propyl)-(3-methyl-1H-pyrazolo[4,3-c]pyridin-4-yl)-amine]
38 | 100 to 1000 | Cc1n[nH]c2ccnc(NC3CCCCCC3)c12 [Example 33, Cycloheptyl-(3-methyl-1H-pyrazolo[4,3-c]pyridin-4-yl)-amine]
39 | 100 to 1000 | Cc1n[nH]c2ccnc(N[C@H]3CC[C@H](C)CC3)c12 [Example 34, Trans-(4-Methyl-cyclohexyl)-(3-methyl-1H-pyrazolo[4,3-c]pyridin-4-yl)-amine]
40 | 1000 to 10000 | Cc1n[nH]c2ccnc(N(C)C3CCCCC3)c12 [Example 35, Cyclohexyl-methyl-(3-methyl-1H-pyrazolo[4,3-c]pyridin-4-yl)-amine]
41 | 100 to 1000 | Cc1n[nH]c2ccnc(NC(C)C)c12 [Example 36, Isopropyl-(3-methyl-1H-pyrazolo[4,3-c]pyridin-4-yl)-amine]
42 | 1000 to 10000 | CC[C@@H](C)Nc1nccc2[nH]nc(C)c12 [Example 37, ((R)-sec-Butyl)-(3-methyl-1H-pyrazolo[4,3-c]pyridin-4-yl)-amine]
43 | 1000 to 10000 | Cc1n[nH]c2ccnc(N[C@H](C)C3CCCCC3)c12 [Example 38, ((R)-1-Cyclohexyl-ethyl)-(3-methyl-1H-pyrazolo[4,3-c]pyridin-4-yl)-amine]
44 | 100 to 1000 | Cc1n[nH]c2ccnc(N[C@H](C)C(C)C)c12 [Example 39, ((R)-1,2-Dimethyl-propyl)-(3-methyl-1H-pyrazolo[4,3-c]pyridin-4-yl)-amine]
45 | 100 to 1000 | Cc1n[nH]c2ccnc(N[C@@H](C)C(C)C)c12 [Example 40, ((S)-1,2-Dimethyl-propyl)-(3-methyl-1H-pyrazolo[4,3-c]pyridin-4-yl)-amine]
46 | 100 to 1000 | CCC(CC)Nc1nccc2[nH]nc(C)c12 [Example 41, (1-Ethyl-propyl)-(3-methyl-1H-pyrazolo[4,3-c]pyridin-4-yl)-amine]
